Measured values: patent US10435379B2, “[4-(1,3,3-trimethyl-2-OXO-3,4-dihydro-1H-quinoxalin-7-yl)phenoxy]ethyloxy compound or salt thereof” (SANTEN PHARMACEUTICAL CO., LTD., priority 2015, dated 2019)

The compounds below were run against Recombinant human GR (Homo sapiens (Human), UniProt P04150) (assay: GR binding activity evaluation test (GR competitive binding assay, fluorescence polarization)). Conditions: 20 μM test compound solution, 10 μL/well; 2 mM DEX as positive control; 2 hours at room temperature.
Recombinant human GR, sequence (P04150 whole entry): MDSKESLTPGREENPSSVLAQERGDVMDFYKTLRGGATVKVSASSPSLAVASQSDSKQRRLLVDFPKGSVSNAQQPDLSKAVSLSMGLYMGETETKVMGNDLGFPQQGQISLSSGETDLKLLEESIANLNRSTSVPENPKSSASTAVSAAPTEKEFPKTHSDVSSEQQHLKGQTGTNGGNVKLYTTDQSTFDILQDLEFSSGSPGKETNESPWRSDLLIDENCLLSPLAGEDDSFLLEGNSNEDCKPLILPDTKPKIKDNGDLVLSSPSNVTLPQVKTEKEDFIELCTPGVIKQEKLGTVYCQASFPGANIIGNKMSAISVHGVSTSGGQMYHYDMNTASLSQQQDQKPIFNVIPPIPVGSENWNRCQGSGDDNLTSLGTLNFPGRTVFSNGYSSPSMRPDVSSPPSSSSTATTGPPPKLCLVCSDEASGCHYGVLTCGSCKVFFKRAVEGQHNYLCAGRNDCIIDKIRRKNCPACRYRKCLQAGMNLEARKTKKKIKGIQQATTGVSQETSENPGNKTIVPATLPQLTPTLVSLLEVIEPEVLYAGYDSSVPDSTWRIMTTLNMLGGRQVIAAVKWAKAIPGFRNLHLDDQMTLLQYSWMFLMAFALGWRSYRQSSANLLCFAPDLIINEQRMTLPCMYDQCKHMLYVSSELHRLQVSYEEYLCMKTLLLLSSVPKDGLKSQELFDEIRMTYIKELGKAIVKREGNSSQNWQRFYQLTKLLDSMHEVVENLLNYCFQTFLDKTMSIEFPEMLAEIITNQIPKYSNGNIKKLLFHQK
Procedure: In order to evaluate a binding activity of the present compound to GR, a GR receptor competitor assay was carried out by a fluorescence polarization method. In the assay, a GR competitive binding assay kit (manufactured by Invitrogen, cat No. P2816) was used for the assay, and a procedure was carried out according to the protocol attached to the kit. Hereinafter, the specific method will be described.
GR screening buffer: A buffer containing 10 mM of potassium phosphate (pH 7.4), 20 mM of sodium molybdate (Na2MoO4), 0.1 mM of ethylene diamine tetraacetic acid (EDTA), 5 mM of dithiothreitol (DTT), 0.1 mM of stabilizing peptide and 2% of dimethylsulfoxide was prepared.
4×GS1 solution: Fluormone™ GS1, which is a fluorescent glucocorticoid ligand, was diluted with GR screening buffer, whereby a 4 nM solution was prepared. […]
5) The plate was incubated in a dark place at room temperature for 2 hours, and fluorescence polarization of each well was measured.
A GR binding ratio (%) was calculated from the following equation. GR binding ratio (%)=100×{1−(fluorescence polarization of test compound solution−average value of fluorescence polarization of positive control solution)/(average value of fluorescence polarization of negative control solution−average value of fluorescence polarization of positive control solution)} (Test Results and Discussion)

Compound	GR binding rate (%)
COc1cc(OCC(O)CO)ccc1-c1ccc2c(c1COc1cc(F)ccc1C)N(C)C(=O)C(C)(C)N2 (stereo not drawn) [Compound 4-1, 7-[4-(2,3-dihydroxypropyl)oxy-2-methoxyphenyl]-8-(5-fluoro-2-methylphenoxymethyl)-1,3,3-trimethyl-3,4-dihydro-1H-quinoxalin-2-one]	>99%

These compounds were tested on IL-6 production in human corneal epithelium cell line (HCE-T) (assay: IL-6 production inhibitory action evaluation test after LPS stimulation). Conditions: 4 hours, 100 μM test compound solution 10 μL/well, DEX treated group = 100.
Format: cell-based
Procedure: To evaluate the action of the present compounds as a GR agonist, IL-6 production inhibitory action in human corneal epithelial cell line after LPS stimulation was examined The IL-6 production was measured by using the HTRF method (Cat No. 62IL6PEB manufactured by Cisbio Bioassays, Inc.) according to the attached protocol. The specific method is described below.
LPS solution: After dissolving LPS in PBS(−), the resulting solution was diluted with a culture solution, whereby an LPS solution with a 1 μg/mL concentration was prepared.
After dissolving the test compound in dimethylsulfoxide, the solution was diluted with a 10% FBS-DMEM/Ham's F12 medium, whereby a 100 μM of the test compound solution was prepared. […] In addition, DEX was similarly dissolved, whereby a 100 μM concentration of the DEX solution was prepared, and an IL-6 production inhibitory ratio of DEX was measured, and used for calculation of Efficacy (% DEX).
Used cells: human corneal epithelium cell line (HCE-T) (RIKEN, Institute of Physical and Chemical Research)
The cells continued to subculture according to this method were used for the test.
(Calculation of IL-6 Production Inhibitory Ratio)
The IL-6 production inhibitory ratio (%) was calculated by the following formula. IL-6 production inhibitory ratio (%)=100×{1−(IL-6 produced amount of each test compound solution−average value of IL-6 produced amount of negative control group)/(average value of IL-6 produced amount of positive control group−average value of IL-6 produced amount of negative control group)}(%)
Further, the IL-6 production inhibitory ratio (Efficacy (% DEX)) when the DEX treated group was made 100 was calculated. Efficacy (% DEX)=100×{(average value of IL-6 production inhibitory ratio of each test compound solution)/(average value of IL-6 production inhibitory ratio of DEX treated group)}(%)
In addition, IC50 was calculated according to a conventional method. IDBS XLfit4 was used for the calculation.

Compound	IL-6 production inhibitory ratio (% DEX)
CC[C@@H](O)COc1ccc(-c2ccc3c(c2COc2cc(F)ccc2C)N(C)C(=O)C(C)(C)N3)c(OC)c1 [Compound 1-4, (R)-8-(5-fluoro-2-methylphenoxymethyl)-7-[4-(2-hydroxybutyl)oxy-2-methoxyphenyl]-1,3,3-trimethyl-3,4-dihydro-1H-quinoxalin-2-one]	92 % DEX
COc1cc(OC[C@H](O)CC#N)ccc1-c1ccc2c(c1COc1cc(F)ccc1C)N(C)C(=O)C(C)(C)N2 [Compound 5-1, (R)-7-[4-(3-cyano-2-hydroxypropyl)oxy-2-methoxyphenyl]-8-(5-fluoro-2-methyl-phenoxymethyl)-1,3,3-trimethyl-3,4-dihydro-1H-quinoxalin-2-one]	98 % DEX
COc1cc(OC[C@@H](O)CC#N)ccc1-c1ccc2c(c1COc1cc(F)ccc1C)N(C)C(=O)C(C)(C)N2 [Compound 5-2, (S)-7-[4-(3-cyano-2-hydroxypropyl)oxy-2-methoxyphenyl]-8-(5-fluoro-2-methyl-phenoxymethyl)-1,3,3-trimethyl-3,4-dihydro-1H-quinoxalin-2-one]	>99 % DEX
COc1cc(OCC(O)CC(=O)OC(C)(C)C)ccc1-c1ccc2c(c1COc1cc(F)ccc1C)N(C)C(=O)C(C)(C)N2 (stereo not drawn) [Compound 7-2, 7-[4-(3-t-butoxycarbonyl-2-hydroxypropyl)oxy-2-methoxyphenyl]-8-(5-fluoro-2-methylphenoxymethyl)-1,3,3-trimethyl-3,4-dihydro-1H-quinoxalin-2-one]	>99 % DEX
COc1ccc(O)cc1-c1ccc2c(c1COc1cc(F)ccc1C)N(C)C(=O)C(C)(C)N2 [Control compound C, 8-(5-fluoro-2-methylphenoxymethyl)-7-(5-hydroxy-2-methoxyphenyl)-1,3,3-trimethyl-3,4-dihydro-1H-quinoxalin-2-one, reference compound]	71 % DEX
